Experimental data taken from the NIST ThermoML archive (doi:10.1016/j.jct.2012.05.008).

Experiment: xn = mol fraction of the nth substance listed
Conditions: Liquid, Vibrating tube method, x2 = 0.3333

NC(N)=O [urea] + C[N+](C)(C)CCO.[Cl-]
mass density [kg/m3]
Conditions	298.15 K	303.15 K	308.15 K	313.15 K	318.15 K	323.15 K
100 kPa	1197.9	1195.1	1192.2	1189.3	1186.4	1183.5
5000 kPa	1199.3	1196.4	1193.6	1190.7	1187.8	1184.9
10000 kPa	1200.6	1197.9	1194.9	1192	1189.2	1186.3
15000 kPa	1201.9	1199.1	1196.3	1193.4	1190.5	1187.6
20000 kPa	1203.3	1200.4	1197.6	1194.7	1191.9	1189
25000 kPa	1204.6	1201.8	1198.9	1196.1	1193.2	1190.4
30000 kPa	1205.9	1203.1	1200.3	1197.4	1194.6	1191.6
35000 kPa	1207.1	1204.4	1201.5	1198.7	1195.8	1193
40000 kPa	1208.3	1205.6	1202.8	1200	1197.1	1194.2
45000 kPa	1209.5	1206.8	1204	1201.2	1198.3	1195.5
50000 kPa	1210.7	1208	1205.1	1202.3	1199.5	1196.7
